This note sets out measurements from patent publication US20250214925A1, “CATIONIC LIPID, LIPOSOME, LIPID NANOPARTICLE, AND USE” (CARCELL BIOPHARMA LTD., priority 2022, published 2025).

A short description of series [1]: LNP size and PDI by dynamic laser light scattering. It is filed as physicochemical. Conditions: LNP: 50% cationic lipid, 38.5% cholesterol, 10% DSPC, 1.5% DMG-PEG2000; Ffluc mRNA. As for the experimental part:
(§1) 1. The cationic lipid (50 mg/mL) prepared in the above examples of the present disclosure, cholesterol (20 mg/mL), DSPC (20 mg/mL) and DMG-PEG2000 (20 mg/mL) were dissolved in ethanol, and the solution was placed in a 55° C. metal thermostatic bath as needed to aid dissolution, to obtain a lipid mixture with the following molar composition: 1.5% DMG-PEG2000, 50% cationic lipid, 38.5% cholesterol, and 10% DSPC.
(§2) 2. The mRNA encoding Ffluc was diluted with 10 mM pH 4.0 citrate buffer to prepare a 0.2 mg/mL mRNA solution.
(§3) 3. The lipid mixture prepared in step 1 was mixed with the mRNA solution prepared in step 2 using a syringe pump with a tee at a total flow rate of 40 mL/min.
(§4) 4. The LNP mixture was collected after the three-way mixing and placed in a dialysis bag with a molecular weight cut-off of 100 KDa.
(§5) 5. The LNP mixture was dialyzed overnight against 50 mM Tris-buffered saline, pH 7.4.
(§6) 6. Sieving, and subsequent measurement of the sieved LNP to measure the PDI of the LNP by dynamic laser light scattering; to measure the mRNA encapsulation efficiency and concentration by Ribogreen assay; and to measure the pKa by TNS-α assay.

A short description of series [2]: mRNA encapsulation efficiency of LNP by Ribogreen assay. Type of series: physicochemical. Conditions: LNP: 50% cationic lipid, 38.5% cholesterol, 10% DSPC, 1.5% DMG-PEG2000; Ffluc mRNA. Here is the method: as §1, §2, §3, §4, §5, §6
For series [3], the system named is mice. As to the kind of experiment: In vivo delivery of Ffluc mRNA LNP in mice, intravenous administration, luminescence relative to MC3. On the set-up: species or system mice (female Balb/C). The settings on record: fold change in luminescence intensity relative to MC3; 0.06 mg/kg tail vein; 6 h after injection. Here is the method:
The prepared encapsulation solution was applied to mice in the following manner, and its delivery efficiency in mice was tested. Among them, DLin-MC3-DMA (MC3) was a cationic liposome for delivering small nucleic acids that was approved by the FDA for marketing in 2018, which has high nucleic acid drug delivery efficiency and biosafety, and was usually used as the industry gold standard in the screening process of cationic lipids. In the evaluation of mice experiments, the ratio of nucleic acid delivery efficiency normalized to MC3 was greater than 0.1, which was considered to be a cationic lipid with high delivery efficiency.
1. The LNP solution was diluted with 50 mM TBS, pH 7.4 to a concentration of 0.1 mg/mL mRNA.
2. The mice involved in this study were female Balb/C, weighing 18-22 g, 6-8 weeks old, with 5 mice in each group.
3. The dosing solution was kept at 4° C. prior to injection.
4. Each mice received 0.06 mg/kg via tail vein injection.
5. The mice were injected intraperitoneally with 200 μL of 1.5 mg/mL D-luciferin solution 6 h after injection.
6. The in vivo luminescence images of the mice were obtained using the IVIS system (Aniview).
7. The luminescence intensity of each mice was measured using Aniview software.
8. MC3 lipid nanoparticles were used as a positive control. The in vivo efficacy of each cationic lipid tested was recorded as the fold change in luminescence intensity relative to MC3 (ratio normalized to MC3).

As for `CCCCC/C=C\C/C=C\CCCCCCCC(=O)OCC(COC(=O)/C=C(\CCCC)CCCCC)COC(=O)OCC(C)(C)CN(C)C` (stereo not drawn) [CPL-309, 3-(((E)-3-butyloct-2-enoyl)oxy)-2-((((3-(dimethylamino)-2,2-dimethylpropoxy)carbonyl)oxy)methyl)propyl(9Z,12Z)-octadeca-9,12-dienoate], in series [1], the PDI is given as 0.0937 and the “Size (nm)” value was determined as 76.44 nm. For the same compound, in series [2], the “Encapsulation Rate” value was 93%.

For `CCCCC/C=C\C/C=C\CCCCCCCC(=O)OCC(COC(=O)C=C(CCCCCCCC)CCCCCCCC)COC(=O)OCCN(C)C` (stereo not drawn) [CPL-210, 3-(((2-(dimethylamino)ethoxy)carbonyl)oxy)-2-(((3-octylundec-2-enoyl)oxy)methyl)propyl(9Z,12Z)-octadeca-9,12-dienoate], in series [1], the PDI was found to be 0.2144 and the “Size (nm)” value was found to be 52.37 nm. Also, the “In Vivo Efficacy Normalized To Mc3 In Mice (Intravenous Injection)” value in series [3] worked out at 0.14. For the same compound, in series [2], the “Encapsulation Rate” value stood at 83%.

For `CCCCC/C=C\C/C=C\CCCCCCCC(=O)OCC(COC(=O)C=C(CCCCCCCCC)CCCCCCCCC)COC(=O)OCCCN(CC)CC` (stereo not drawn) [CPL-001-01, 3-(((3-(diethylamino)propoxy)carbonyl)oxy)-2-(((3-nonyldodec-2-enoyl)oxy)methyl)propyl(9Z,12Z)-octadeca-9,12-dienoate], in series [1], the PDI is 0.0594 and the “Size (nm)” value is 62.9 nm. In addition, in series [3], the “In Vivo Efficacy Normalized To Mc3 In Mice (Intravenous Injection)” value is 2.00. The “Encapsulation Rate” value in series [2] came to 96%.

Regarding `CCCCC/C=C\C/C=C\CCCCCCCC(=O)OCC(COC(=O)C=C(CCCCCCCCCC)CCCCCCCCCC)COC(=O)OCC(C)(C)CN(C)C` (stereo not drawn) [CPL-322, 3-((3-decyltridec-2-enoyl)oxy)-2-((((3-(dimethylamino)-2,2-dimethylpropoxy)carbonyl)oxy)methyl)propyl(9Z,12Z)-octadeca-9,12-dienoate], in series [1], the PDI is recorded as 0.1302 and the “Size (nm)” value worked out at 96.21 nm. Further, the “Encapsulation Rate” value in series [2] is listed as 94%.

For `CCCCC/C=C\C/C=C\CCCCCCCC(=O)OCC(COC(=O)/C=C(\CCCCC)CCCCCCCC)COC(=O)OCCC1CCN(C)CC1` (stereo not drawn) [CPL-289, 3-(((2-(1-methylpiperidin-4-yl)ethoxy)carbonyl)oxy)-2-((((E)-3-pentylundec-2-enoyl)oxy)methyl)propyl(9Z,12Z)-octadeca-9,12-dienoate], in series [1], the PDI came out at 0.1371 and the “Size (nm)” value turned out to be 83 nm. In series [2], the “Encapsulation Rate” value was determined as 97%.

With `CCCCCCCCCC/C(=C/C(=O)OCCCCCN(CCCO)CCCCCOC(=O)/C=C(\CCCCC)CCCCCCCCCC)CCCCC` [CPL-048, ((3-hydroxypropyl)azanediyl)bis(pentane-5,1-diyl) (2E,2′E)-bis(3-pentyltridec-2-enoate)], in series [1], the PDI is listed as 0.2409 and the “Size (nm)” value stood at 110.1 nm. Moreover, the “In Vivo Efficacy Normalized To Mc3 In Mice (Intravenous Injection)” value in series [3] was found to be 1.57. The “Encapsulation Rate” value in series [2] is recorded as 94%.

As to `CCCCCCCCCC/C(=C/C(=O)OCCCCCCCCCCN(CCCO)CCCCCOC(=O)/C=C(\CCCC)CCCCCCCCCC)CCC` [CPL-1093, 10-(((5-(E)-3-butyltridec-2-enoyl)oxy)pentyl)((3-hydroxypropyl)amino)decyl(E)-3-propyl-2-tridecenoate], in series [1], the PDI turned out to be 0.21 and the “Size (nm)” value is listed as 112.08 nm. Moreover, the “In Vivo Efficacy Normalized To Mc3 In Mice (Intravenous Injection)” value in series [3] turned out to be 1.55. In series [2], the “Encapsulation Rate” value is listed as 99%.

On to `CCCCC/C=C\C/C=C\CCCCCCCC(=O)OCC(COC(=O)/C=C(\CCCCC)CCCCCCCCCC)COC(=O)OCC1CCCN(C)C1` (stereo not drawn) [CPL-378, 3-((((1-methylpiperidin-3-yl)methoxy)carbonyl)oxy)-2-((((E)-3-_pentyltridec-2-enoyl)oxy)methyl)propyl(9Z,12Z)-octadeca-9,12-dienoate], for which, in series [1], the PDI was found to be 0.1099 and the “Size (nm)” value is on record as 82.38 nm. Further, the “In Vivo Efficacy Normalized To Mc3 In Mice (Intravenous Injection)” value in series [3] came to 0.43. Besides, the “Encapsulation Rate” value in series [2] is 96%.

`CCCCCCC/C(=C/C(=O)OCCCCN(CCCO)CCCCOC(=O)/C=C(\CCCCCC)CCCCCCC)CCCCCC` [CPL-031, ((3-hydroxypropyl)azanediyl)bis(butane-4,1-diyl) (2E,2′E)-bis(3-hexyldec-2-enoate)]: in series [1], the PDI came out at 0.2448 and the “Size (nm)” value was found to be 92.39 nm. Besides, the “In Vivo Efficacy Normalized To Mc3 In Mice (Intravenous Injection)” value in series [3] is on record as 0.75. The “Encapsulation Rate” value in series [2] came to 94%.

`CCCCC/C=C\C/C=C\CCCCCCCC(=O)OCC(COC(=O)/C=C(\CCCCCCC)CCCCCCCC)COC(=O)OCCN(C)C` (stereo not drawn) [CPL-208, 3-(((2-(dimethylamino)ethoxy)carbonyl)oxy)-2-((((E)-3-heptylundec-2-enoyl)oxy)methyl)propyl(9Z,12Z)-octadeca-9,12-dienoate]: in series [1], the PDI is 0.2382 and the “Size (nm)” value was 96.3 nm. Moreover, the “Encapsulation Rate” value in series [2] is on record as 95%.

With `CCCCC/C=C\C/C=C\CCCCCCCC(=O)OCC(COC(=O)/C=C(\CCCCC)CCCCCC)COC(=O)OCCCN1CCN(C)CC1` (stereo not drawn) [CPL-398, 3-(((3-(4-methylpiperazin-1-yl)propoxy)carbonyl)oxy)-2-((((E)-3-pentylnonan-2-enoyl)oxy)methyl)propyl(9Z,12Z)-octadeca-9,12-dienoate], in series [1], the PDI worked out at 0.0778 and the “Size (nm)” value is given as 115.7 nm. In addition, in series [2], the “Encapsulation Rate” value is listed as 97%.

For the compound `CCCCC/C=C\C/C=C\CCCCCCCC(=O)OCC(COC(=O)/C=C(\CCC)CCCCCC)COC(=O)OCCC1CCN(C)CC1` (stereo not drawn) [CPL-280, 3-(((2-(1-methylpiperidin-4-yl)ethoxy)carbonyl)oxy)-2-((((E)-3-propylnon-2-enoyl)oxy)methyl)propyl(9Z,12Z)-octadeca-9,12-dienoate], in series [1], the PDI is reported as 0.2607 and the “Size (nm)” value is on record as 119.6 nm. Further, the “Encapsulation Rate” value in series [2] worked out at 97%.

For the compound `CCCCCCCCCC/C(=C/C(=O)OCCCCCN(CCCO)CCCCCOC(=O)/C=C(\CCCC)CCCCCCCCCC)CCC` [CPL-1092], the “In Vivo Efficacy Normalized To Mc3 In Mice (Intravenous Injection)” value in series [3] is on record as 0.83.

For the compound `CCCCC/C=C\C/C=C\CCCCCCCC(=O)OCC(COC(=O)/C=C(\CCCCC)CCCCCCCCCC)COC(=O)OCCC1CCN(C)CC1` (stereo not drawn) [CPL-290], in series [1], the PDI worked out at 0.1615 and the “Size (nm)” value was 105.5 nm. Also, in series [2], the “Encapsulation Rate” value amounted to 98%.

As to `CCCCCC/C(=C/C(=O)OCCCCCCCCN(CCO)CCCCCCCCOC(=O)/C=C(\CCCC)CCCCCC)CCCC` [CPL-455-01, ((2-hydroxyethyl)azanediyl)bis(octane-8,1-diyl) (2E,2′E)-bis(3-butylnon-2-enoate)], in series [1], the PDI is 0.1065 and the “Size (nm)” value was determined as 69.76 nm. Besides, the “Encapsulation Rate” value in series [2] came out at 85%.

As for `CCCCC/C=C\C/C=C\CCCCCCCC(=O)OCC(COC(=O)/C=C(\CCCC)CCCCCCC)COC(=O)OCC(C)(C)CN(C)C` (stereo not drawn) [CPL-316, 3-(((E)-3-butyldec-2-enoyl)oxy)-2-((((3-(dimethylamino)-2,2-dimethylpropoxy)carbonyl)oxy)methyl)propyl(9Z,12Z)-octadeca-9,12-dienoate], in series [1], the PDI amounted to 0.1387 and the “Size (nm)” value turned out to be 75.82 nm. In addition, in series [2], the “Encapsulation Rate” value turned out to be 93%.

With `CCCCC/C=C\C/C=C\CCCCCCCC(=O)OCC(COC(=O)/C=C(/CCCCCCCC)CCCCCCCCCC)COC(=O)OCCCN1CCN(C)CC1` (stereo not drawn) [CPL-409, 3-(((3-(4-methylpiperazin-1-yl)propoxy)carbonyl)oxy)-2-((((Z)-3-octyltridec-2-enoyl)oxy)methyl)propyl(9Z 12Z)-octadeca-9,12-dienoate], in series [1], the PDI is 0.1474 and the “Size (nm)” value amounted to 94.97 nm. For the same compound, the “Encapsulation Rate” value in series [2] is 96%.

On to `CCCCC/C=C\C/C=C\CCCCCCCC(=O)OCC(COC(=O)C=C(CCCCCCCCCC)CCCCCCCCCC)COC(=O)OCCCN(C)C` (stereo not drawn) [CPL-234, 3-((3-decyltridec-2-enoyl)oxy)-2-((((3-(dimethylamino)propoxy)carbonyl)oxy)methyl)propyl(9Z,12Z)-octadeca-9,12-dienoate], for which the “In Vivo Efficacy Normalized To Mc3 In Mice (Intravenous Injection)” value in series [3] is 0.96.

For “3-((((2-(dimethylamino)ethoxy)carbonyl)oxy)-2-((((E)-3-hexylundec-2-enoyl)oxy)methyl)propyl(97,127)-octadeca-9,12-dienoate [CPL-203]”, in series [3], the “In Vivo Efficacy Normalized To Mc3 In Mice (Intravenous Injection)” value was 0.23.
